# From patent US20100285959A1, “HERBICIDAL MIXTURES” (priority 2006, published 2010)
# Experiments:
# [1] = test system: velvetleaf (ABUTH); experiment: Test 1 field trial, preemergence; format: in vivo, Abutilon theophrasti
# Excerpt: (§1) Corn seeds (hybrid ‘Pioneer 34N43’) were planted in mid spring season, 3.8 cm deep in a silt loam soil having 4.6% organic matter and a pH of 6. Plots were 10.7 m long by 1.5 m wide with rows spaced 76 cm apart. Seeds were spaced 18 cm apart within the rows. The field was managed using conventional tillage practices. […] Results are summarized in Table 1 and are the means of the three replicates. […] Colby's Equation (Colby, S. R. “Calculating Synergistic and Antagonistic Responses of Herbicide Combinations,” Weeds, 15(1), pp 20-22 (1967)) calculates the expected additive effect of herbicidal mixtures, and for two active ingredients is of the form:
# (§2) Pa+b=Pa+Pb−(PaPb/100) • wherein Pa+b is the percentage effect of the mixture expected from additive contribution of the individual components, • Pa is the observed percentage effect of the first active ingredient at the same use rate as in the mixture, and • Pb is the observed percentage effect of the second active ingredient at the same use rate as in the mixture.
# [2] = test system: Pennsylvania smartweed (POLPY); experiment: Test 1 field trial, preemergence; format: in vivo, Polygonum pensylvanicum
# Excerpt: as §1, §2
# [3] = test system: velvetleaf (ABUTH); experiment: Test 5 field trial, postemergence; format: in vivo, Abutilon theophrasti
# Excerpt: (§3) Corn seeds (hybrid ‘Pioneer 38H69’) were planted in mid spring season, 5.1 cm deep in a silty clay loam soil having 3% organic matter and a pH of 6.5. Plots were 9.1 m long by 3.0 m wide with rows spaced 76 cm apart. The field was managed using conventional tillage practices. […] All treatments included a surfactant except glufosinate treatments, both alone and in combination. […] Results are summarized in Table 5 and are the means of the three replicates.
# [4] = test system: common lambsquarters (CHEAL); experiment: Test 5 field trial, postemergence; format: in vivo, Chenopodium album
# Excerpt: as §3
# [5] = test system: field pennycress (THLAR); experiment: Test 5 field trial, postemergence; format: in vivo, Thlaspi arvense
# Excerpt: as §3
# [6] = test system: redroot pigweed (AMARE); experiment: Test 6 field trial, postemergence; format: in vivo, Amaranthus retroflexus
# Excerpt: Corn seeds (hybrid ‘Pioneer 35Y62’) were planted in mid spring season, 3.8 cm deep in a silt loam soil having 4% organic matter and a pH of 5.8. Plots were 10.7 m long by 1.5 m wide with rows spaced 76 cm apart. Seeds were spaced 18 cm apart within the rows. The field was managed using conventional tillage practices. […] All treatments included a surfactant except glufosinate treatments, both alone and in combination. […] Results are summarized in Table 6 and are the means of the three replicates.
# [7] = test system: corn (ZEAMD); experiment: Test 8 field trial, preemergence; format: in vivo, Zea mays ssp. indentata; settings: hybrid Pioneer 31G96, corn (Zea mays ssp. indentata), in vivo, 56 days after application
# Excerpt: (§4) Corn seeds (hybrid ‘Pioneer 31G96’) were planted in mid spring season, 3.8 cm deep in a clay loam soil having 2% organic matter and a pH of 6.6. Plots were 6.1 m long by 3.0 m wide with rows spaced 76 cm apart. Seeds were spaced 15 cm apart within the rows. The field was managed using conventional tillage practices. […] A few of the weed species could not be evaluated at every timing. […] Results are the means of the three replicates.
# [8] = test system: redroot pigweed (AMARE); experiment: Test 8 field trial, preemergence; format: in vivo, Amaranthus retroflexus; settings: 56 DAA
# Excerpt: as §4
# [9] = test system: common ragweed (AMBEL); experiment: Test 8 field trial, preemergence; format: in vivo, Ambrosia artemisiifolia
# Excerpt: as §4
# [10] = test system: jimsonweed (DATST); experiment: Test 8 field trial, preemergence; format: in vivo, Datura stramonium
# Excerpt: as §4
# [11] = test system: Pennsylvania smartweed (POLPY); experiment: Test 8 field trial, preemergence; format: in vivo, Polygonum pensylvanicum
# Excerpt: as §4
# [12] = test system: southern sandbur (CCHEC); experiment: Test 11 field trial, preemergence; format: in vivo, Cenchrus echinatus; design: scale not given here; settings: alone or + atrazine 1500 or metolachlor 2500
# Excerpt: (§5) Corn seeds (hybrid ‘Pioneer 3041’) were planted in mid spring season, 5 cm deep in a clay soil having 2.6% organic matter and a pH of 5.6. Plots were 8 m long by 1.5 m wide with rows spaced 80 cm apart. Seeds were spaced 15 cm apart within the rows. The field was managed using conventional tillage practices. […] Treatments consisted of Compound 2 or
# (§6) Goosegrass was not evaluated 16 or 91 days after application.
# [13] = test system: goosegrass (ELEIN); experiment: Test 11 field trial, preemergence; format: in vivo, Eleusine indica
# Excerpt: as §5, §6
# [14] = test system: Ipomoea grandiflora (IPOGF); experiment: Test 11 field trial, preemergence; format: in vivo
# Excerpt: as §5, §6
# [15] = 28 DAA, g a.i./ha: Cpd 2 50, S-Metolachlor 1870
# [16] = 28 DAA, g a.i./ha: Cpd 2 100, Atrazine 1680, S-Metolachlor 1870
# [17] = 28 DAA, g a.i./ha: Cpd 2 150, S-Metolachlor 1870
# [18] = 56 DAA, g a.i./ha: Cpd 2 50, S-Metolachlor 1870
# [19] = 56 DAA, g a.i./ha: Cpd 2 100, Atrazine 1680, S-Metolachlor 1870
# [20] = 56 DAA, g a.i./ha: Cpd 2 150, S-Metolachlor 1870
# [21] = 16 DAA, Cpd 2 30 g a.i./ha alone or with glufosinate 470 or glyphosate 1120
# [22] = 16 DAA, Cpd 2 60 g a.i./ha alone or with atrazine 1120, glufosinate 470 or glyphosate 1120
# [23] = 31 DAA, Cpd 2 30 g a.i./ha alone or with glufosinate 470 or glyphosate 1120
# [24] = 31 DAA, Cpd 2 60 g a.i./ha alone or with atrazine 1120, glufosinate 470 or glyphosate 1120
# [25] = 19 DAA, g a.i./ha: Cpd 2 50, S-Metolachlor 1870
# [26] = 19 DAA, g a.i./ha: Cpd 2 100, Atrazine 1680, S-Metolachlor 1870
# [27] = 19 DAA, g a.i./ha: Cpd 2 150, S-Metolachlor 1870
# [28] = 29 DAA, g a.i./ha: Cpd 2 50, S-Metolachlor 1870
# [29] = 29 DAA, g a.i./ha: Cpd 2 100, Atrazine 1680, S-Metolachlor 1870
# [30] = 29 DAA, g a.i./ha: Cpd 2 150, S-Metolachlor 1870
# [31] = 30 DAA, Cpd 2/Cpd 1 at 62 g a.i./ha, alone or + atrazine 1500 or metolachlor 2500
# [32] = 30 DAA, Cpd 2/Cpd 1 at 125 g a.i./ha, alone or + atrazine 1500 or metolachlor 2500
# [33] = 44 DAA, Cpd 2/Cpd 1 at 62 g a.i./ha, alone or + atrazine 1500 or metolachlor 2500
# [34] = 44 DAA, Cpd 2/Cpd 1 at 125 g a.i./ha, alone or + atrazine 1500 or metolachlor 2500
# [35] = 62 DAA, 62 g a.i./ha, scale 0 to 100
# [36] = 62 DAA, 125 g a.i./ha, scale 0 to 100
smiles,measurement,setting,value
"COC(=O)c1nc(C2CC2)nc(N)c1Cl [Compound 2, methyl 6-amino-5-chloro-2-cyclopropyl-4-pyrimidinecarboxylate]",ABUTH Obs,[1]; [15],0
same,ABUTH Obs,[1]; [16],0
same,ABUTH Obs,[1]; [17],0
same,ABUTH Obs,[1]; [18],0
same,ABUTH Obs,[1]; [19],0
same,ABUTH Obs,[1]; [20],10
same,POLPY Obs,[2]; [15],0
same,POLPY Obs,[2]; [16],0
same,POLPY Obs,[2]; [17],0
same,POLPY Obs,[2]; [18],0
same,POLPY Obs,[2]; [19],0
same,POLPY Obs,[2]; [20],0
same,ABUTH Obs,[3]; [21],76%
same,ABUTH Obs,[3]; [22],81%
same,ABUTH Obs,[3]; [23],77%
same,ABUTH Obs,[3]; [24],82%
same,CHEAL Obs,[4]; [21],83%
same,CHEAL Obs,[4]; [22],87%
same,CHEAL Obs,[4]; [23],82%
same,CHEAL Obs,[4]; [24],99%
same,THLAR Obs,[5]; [21],37%
same,THLAR Obs,[5]; [22],42%
same,THLAR Obs,[5]; [23],0%
same,THLAR Obs,[5]; [24],2%
same,AMARE Obs,"[6]; 14 DAA, 30 g a.i./ha",100%
same,AMARE Obs,"[6]; 14 DAA, 60 g a.i./ha",98%
same,AMARE Obs,"[6]; 28 DAA, 30 g a.i./ha",100%
same,AMARE Obs,"[6]; 28 DAA, 60 g a.i./ha",98%
same,ZEAMD Obs,[7],0%
same,AMARE Obs,"[8]; g a.i./ha: Cpd 2 50, S-Metolachlor 1870",45%
same,AMARE Obs,"[8]; g a.i./ha: Cpd 2 100, Atrazine 1680, S-Metolachlor 1870",100%
same,AMARE Obs,"[8]; g a.i./ha: Cpd 2 150, S-Metolachlor 1870",100%
same,AMBEL Obs,[9]; [25],36%
same,AMBEL Obs,[9]; [26],73%
same,AMBEL Obs,[9]; [27],83%
same,AMBEL Obs,[9]; [28],65%
same,AMBEL Obs,[9]; [29],88%
same,AMBEL Obs,[9]; [30],96%
same,AMBEL Obs,[9]; [18],52%
same,AMBEL Obs,[9]; [19],90%
same,AMBEL Obs,[9]; [20],97%
same,DATST Obs,[10]; [25],33%
same,DATST Obs,[10]; [26],52%
same,DATST Obs,[10]; [27],65%
same,DATST Obs,[10]; [28],45%
same,DATST Obs,[10]; [29],63%
same,DATST Obs,[10]; [30],85%
same,DATST Obs,[10]; [18],65%
same,DATST Obs,[10]; [19],90%
same,DATST Obs,[10]; [20],100%
same,POLPY Obs,"[11]; 19 DAA, g a.i./ha: Cpd 2 50",28%
same,POLPY Obs,"[11]; 19 DAA, g a.i./ha: Cpd 2 100",60%
same,POLPY Obs,"[11]; 19 DAA, g a.i./ha: Cpd 2 150",65%
same,POLPY Obs,[11]; [28],30%
same,POLPY Obs,[11]; [29],50%
same,POLPY Obs,[11]; [30],70%
same,POLPY Obs,"[11]; 56 DAA, g a.i./ha: Cpd 2 50",55%
same,POLPY Obs,"[11]; 56 DAA, g a.i./ha: Cpd 2 100, Atrazine 1680",75%
same,POLPY Obs,"[11]; 56 DAA, g a.i./ha: Cpd 2 150",95%
same,CCHEC Obs,"[12]; 16 DAA, Cpd 2/Cpd 1 at 62 g a.i./ha",0
same,CCHEC Obs,"[12]; 16 DAA, Cpd 2/Cpd 1 at 125 g a.i./ha",40
same,CCHEC Obs,"[12]; 30 DAA, Cpd 2/Cpd 1 at 62 g a.i./ha",0
same,CCHEC Obs,"[12]; 30 DAA, Cpd 2/Cpd 1 at 125 g a.i./ha",40
same,CCHEC Obs,"[12]; 44 DAA, Cpd 2/Cpd 1 at 62 g a.i./ha",0
same,CCHEC Obs,"[12]; 44 DAA, Cpd 2/Cpd 1 at 125 g a.i./ha",0
same,CCHEC Obs,"[12]; 62 DAA, Cpd 2/Cpd 1 at 62 g a.i./ha",0
same,CCHEC Obs,"[12]; 62 DAA, Cpd 2/Cpd 1 at 125 g a.i./ha",0
same,CCHEC Obs,"[12]; 91 DAA, Cpd 2/Cpd 1 at 62 g a.i./ha",0
same,CCHEC Obs,"[12]; 91 DAA, Cpd 2/Cpd 1 at 125 g a.i./ha",0
same,ELEIN Obs,[13]; [31],0
same,ELEIN Obs,[13]; [32],20
same,ELEIN Obs,[13]; [33],0
same,ELEIN Obs,[13]; [34],0
same,ELEIN Obs,[13]; [35],0
same,ELEIN Obs,[13]; [36],0
same,IPOGF Obs,"[14]; 16 DAA, Cpd 2/Cpd 1 at 62 g a.i./ha, alone or + atrazine 1500 or metolachlor 2500",0
same,IPOGF Obs,"[14]; 16 DAA, Cpd 2/Cpd 1 at 125 g a.i./ha, alone or + atrazine 1500 or metolachlor 2500",40
same,IPOGF Obs,[14]; [31],40
same,IPOGF Obs,[14]; [32],60
same,IPOGF Obs,[14]; [33],0
same,IPOGF Obs,[14]; [34],50
same,IPOGF Obs,[14]; [35],0
same,IPOGF Obs,[14]; [36],0
same,IPOGF Obs,"[14]; 91 DAA, 62 g a.i./ha, scale 0 to 100",0
same,IPOGF Obs,"[14]; 91 DAA, 125 g a.i./ha, scale 0 to 100",0
